Measurements reported in patent publication US4199570A, “1-N-Hetero containing aminoglycoside derivatives” (Shionogi & Co., Ltd., priority 1977, dated 1980).
≈ marks a conversion by molar mass, not a printed value.

Key:
Assay type in all cases: cell-based
[1] = system: Staphylococcus epidermidis TB-302; experiment: MIC (Table 2); settings: TB302, tobramycin resistant strain, read-out: Minimum Inhibitory Concentration (MIC)
[2] = system: Pseudomonas aeruginosa TB-151; experiment: MIC (Table 2); settings: TB151, tobramycin resistant strain, read-out: Minimum Inhibitory Concentration (MIC)
[3] = system: Staphylococcus epidermidis TB-775; experiment: MIC (Table 2); settings: TB775, tobramycin resistant strain, read-out: Minimum Inhibitory Concentration (MIC)
Proteus vulgaris TB-615 [4] = experiment: MIC (Table 2); settings: TB615, tobramycin resistant strain, read-out: Minimum Inhibitory Concentration (MIC)
[5] = system: Pseudomonas aeruginosa TB-121; experiment: MIC (Table 2); settings: TB121, tobramycin resistant strain, read-out: Minimum Inhibitory Concentration (MIC)
[6] = system: Staphylococcus epidermidis TB-775; experiment: MIC (Table 3); settings: TB775, read-out: Minimum Inhibitory Concentration (MIC)
[7] = system: Pseudomonas aerginosa TB-121; experiment: MIC (Table 3); settings: TB121, read-out: Minimum Inhibitory Concentration (MIC)
[8] = system: Pseudomonas aeruginosa TB-151; experiment: MIC (Table 3); settings: TB151, read-out: Minimum Inhibitory Concentration (MIC)
Proteus vulgaris TB-615 [9] = experiment: MIC (Table 3); settings: TB615, read-out: Minimum Inhibitory Concentration (MIC)

In the case of NC[C@H]1O[C@H](O[C@H]2[C@H](O)[C@@H](O[C@H]3O[C@H](CO)[C@@H](O)[C@H](N)[C@H]3O)[C@H](N)C[C@@H]2N)[C@H](O)[C@@H](O)[C@@H]1O [KM-A, kanamycin A], the MIC [1] is reported as 12.5 µg/mL (≈ 25.8 µM), the MIC [2] is reported as over 100 µg/mL and the MIC [3] is reported as over 100 µg/mL. It also gave an MIC (Proteus vulgaris TB-615 [4]) of 100 µg/mL (≈ 206 µM) and an MIC [5] of over 100 µg/mL.
For NC[C@H]1O[C@H](O[C@H]2[C@H](O)[C@@H](O[C@H]3O[C@H](CO)[C@@H](O)[C@H](N)[C@H]3O)[C@H](N)C[C@@H]2N)[C@H](N)C[C@@H]1O [TOB, tobramycin], the MIC [1] was 25 µg/mL (≈ 53.5 µM), the MIC [6] was 100 µg/mL (≈ 214 µM) and the MIC [2] was 100 µg/mL (≈ 214 µM). For the same molecule, the MIC [7] was 25 µg/mL (≈ 53.5 µM), the MIC [8] was 25 µg/mL (≈ 53.5 µM) and the MIC (Proteus vulgaris TB-615 [9]) was 50 µg/mL (≈ 107 µM). The MIC [3] was over 100 µg/mL, the MIC (Proteus vulgaris TB-615 [4]) was 50 µg/mL (≈ 107 µM) and the MIC [5] was 100 µg/mL (≈ 214 µM).
Work on NC[C@H]1O[C@H](O[C@H]2[C@H](O)[C@@H](O[C@H]3O[C@H](CO)[C@@H](O)[C@H](N)[C@H]3O)[C@H](NC(=O)C3(O)CNC3)C[C@@H]2N)[C@H](O)[C@@H](O)[C@@H]1O [Comp. (2), 1-N-(3-hydroxyazetidine-3-carbonyl)kanamycin A] yielded an MIC [1] of 6.25 µg/mL (≈ 10.7 µM), an MIC [2] of 6.25 µg/mL (≈ 10.7 µM) and an MIC [3] of 50 µg/mL (≈ 85.7 µM). For the same molecule, the MIC (Proteus vulgaris TB-615 [4]) was 6.25 µg/mL (≈ 10.7 µM) and the MIC [5] was 25 µg/mL (≈ 42.8 µM).
NC[C@H]1O[C@H](O[C@H]2[C@H](O)[C@@H](O[C@H]3O[C@H](CO)[C@@H](O)[C@H](N)[C@H]3O)[C@H](NC(=O)C3(O)CNC3)C[C@@H]2N)[C@H](N)C[C@@H]1O [Comp. (1), 1-N-(3-hydroxyazetidine-3-carbonyl)tobramycin] showed an MIC [1] of 12.5 µg/mL (≈ 22.1 µM), an MIC [2] of 3.13 µg/mL (≈ 5.52 µM) and an MIC [3] of over 100 µg/mL. It also gave an MIC (Proteus vulgaris TB-615 [4]) of 6.25 µg/mL (≈ 11 µM) and an MIC [5] of 25 µg/mL (≈ 44.1 µM).
